Results: patent publication US20250127787A1, “METHODS FOR TREATING PERIPHERAL NEUROPATHY” (University of Pittsburgh - Of the Commonwealth System of …, priority 2021, published 2025)
“Also recorded” adds a separate entry of the source. Like-named read-outs stand apart in the source and are kept apart here.

How the values were obtained:
[1] = Pharmacokinetics of 8-aminoguanine: plasma disposition; format: in vivo; settings: single bolus 5 mg/kg through the jugular catheter; for half-life: Sprague-Dawley, rat, plasma, intravenous, 5 mg/kg
Method: (§2) Rats were anesthetized with urethane (Sigma-Aldrich, St. Louis, MO) at 1.2 g/kg. A continuous infusion of 0.9% sterile saline at 25 ul/min was established via a catheter inserted into the jugular vein. A second catheter to the carotid artery was established in order to collect blood samples (200 μl) which were drawn into a 1 ml syringe prefilled with 50 U heparin. Blood samples were centrifuged at 1300 g for 10 minutes and supernatant (plasma) was then quickly frozen on dry ice and stored at −80° C. until assay. Urine samples were collected by a urethral catheter, centrifuged at 416 g for 10 minutes to remove sediment, and stored as above. Baseline blood samples and urine samples were collected followed by a single bolus of 8-aminoguanine (8-AG, 5 mg/kg) administered through the jugular catheter. Blood samples were collected after 15, 30, 60, 120 and 240 minutes. Urine samples were collected at 1, 2, 4 and 6 hours.
Purines in urine were measured by mass spectrometry using multiple reaction monitoring. Blood samples were diluted 1 to 30 with water, and heavy isotope internal standards were added to each sample. Purines were separated by reversed-phase ultra-performance liquid chromatography (Waters UPLC BEH C18 column, 1.7 μm beads; 2.1×150 mm; Milford, MA) and quantified by multiple reaction monitoring using a triple quadrupole mass spectrometer (TSQ Quantum-Ultra; ThermoFisher Scientific, San Jose, CA) with a heated electrospray ionization source. The mobile phase was a linear gradient flow rate (300 uL/min) of 1% acetic acid in water (pH, 3; mobile phase A) and 100% methanol (mobile phase B), and was delivered with a Waters Acquity ultra-performance liquid chromatographic system. The gradient (A/B) settings were: from 0 to 2 minutes, 99.6%/0.4%; from 2 to 3 minutes, to 98.0%/2.0%; from 3 to 4 minutes, to 85.0%/15.0%; from 4 to 6.5 minutes, to 99.6%/0.4%. […]

CYP—CIPN rats = experiment: Von Frey sensory testing in CYP-CIPN rats; format: in vivo, rat; settings: hindpaw, 8-AG 5 mg/kg/day in drinking water
Method: (§1) Animals. This study employed female Harlan Sprague Dawley (HSD) rats (3-4 mo; Envigo, Indianapolis, IN) and were divided into the following groups: 1) Control, 2) Cyclophosphamide (CYP, 75 mg/kg i.p. in saline vehicle; administered on days 0, 3 and 6); 3) 8-aminoguanine (8-AG; 5 mg/kg/day in drinking water; beginning 2 weeks prior to CYP and continuing until sacrifice (day 8)). The dose of 8-AG is based on our preliminary and published experiments. […] The investigation conforms to the Guide for the Care and Use of Laboratory Animals published by the US National Institutes of Health (NIH Publication No. 85-23, revised 1996). In addition, all tissues (dorsal root ganglion, spinal cord, peripheral nerves and hindpaw epidermis) were removed from isoflurane anesthetized rats and the tissue was used for various experimental approaches as described below. At the end of tissue removal, animals were sacrificed by thoracotomy.
Control, CYP and 8-AG-treated CYP rats were placed in an elevated chamber on a wire mesh floor and after acclimatization, calibrated von Frey microfilaments were applied to determine paw withdrawal threshold (PWT, in grams). Briefly, microfilaments (Stoelting Corp, USA) are applied with different forces perpendicularly to the plantar surface of both ipsilateral and contralateral hindpaw by increasing and decreasing stimulus intensity. […]

[2] = tested on: isolated mitochondria from spinal cord (L3-L5) homogenates; experiment: Mitochondrial respiration (respiratory control ratio) in CYP-CIPN rat spinal cord; format: in vivo; settings: oral 8-AG
Method: as §1
Mitochondrial Respiration. Homogenates (peripheral nerve and/or spinal cord) were used to measure mitochondrial respiration. Mitochondria were isolated as described earlier with modifications. […] The respiratory control ratio (RCR), a measure of the “tightness of coupling” between electron transport and oxidative phosphorylation, was determined from ratio of state 3 to state 4 rates of respiration. […]

PNPase = PNPase (Rattus norvegicus, UniProt P85973); settings: single bolus 5 mg/kg
Sequence of PNPase (P85973 whole entry): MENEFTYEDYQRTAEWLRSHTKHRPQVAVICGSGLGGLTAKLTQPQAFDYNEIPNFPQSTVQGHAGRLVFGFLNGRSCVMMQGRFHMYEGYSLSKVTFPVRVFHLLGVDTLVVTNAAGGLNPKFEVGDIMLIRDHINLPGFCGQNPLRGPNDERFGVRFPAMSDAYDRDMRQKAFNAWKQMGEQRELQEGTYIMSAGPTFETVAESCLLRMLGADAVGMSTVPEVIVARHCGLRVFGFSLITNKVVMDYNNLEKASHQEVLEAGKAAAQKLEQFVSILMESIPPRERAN
Method: as §2
Purines in urine were measured by mass spectrometry using multiple reaction monitoring. Blood samples were diluted 1 to 30 with water, and heavy isotope internal standards were added to each sample. Purines were separated by reversed-phase ultra-performance liquid chromatography (Waters UPLC BEH C18 column, 1.7 μm beads; 2.1×150 mm; Milford, MA) and quantified by multiple reaction monitoring using a triple quadrupole mass spectrometer (TSQ Quantum-Ultra; ThermoFisher Scientific, San Jose, CA) with a heated electrospray ionization source. The mobile phase was a linear gradient flow rate (300 uL/min) of 1% acetic acid in water (pH, 3; mobile phase A) and 100% methanol (mobile phase B), and was delivered with a Waters Acquity ultra-performance liquid chromatographic system. The gradient (A/B) settings were: from 0 to 2 minutes, 99.6%/0.4%; from 2 to 3 minutes, to 98.0%/2.0%; from 3 to 4 minutes, to 85.0%/15.0%; from 4 to 6.5 minutes, to 99.6%/0.4%. The instrument parameters were: sample tray temperature, 10° C.; column temperature, 50° C.; ion spray voltage, 4.0 kilovolts; ion transfer tube temperature, 350° C.; source vaporization temperature, 320° C.; Q2 CID gas, argon at 1.5 mTorr; sheath gas, nitrogen at 60 psi; auxillary gas, nitrogen at 35 psi; Q1/Q3 width, 0.7/0.7 units full-width half-maximum; scan width, 0.6 units; scan time, 0.01 seconds. The following transitions (multiple reaction monitoring) were obtained: guanosine (284→152; RT=2.94 min); ^13C10, ^15N5-guanosine (299→162, RT=2.94 min); guanine (152→135; RT=1.48 min); ^13C2, ^15N-guanine (155→138, RT=1.48 min); hypoxanthine (137→119 m/z, RT=1.86 min); ^13C5-hypoxanthine (142→124 m/z, RT=1.86 min); aminoguanine (167→150 m/z, RT=1.50 min); ^13C2^15N-aminoguanine (170→153 m/z, RT=1.50 min).

half-life ([1]; read-out: half-life of first phase of decay (distribution from plasma into tissues) (converted)): 0.38 h
half-life ([1]; read-out: half-life of second phase (elimination from the body) (converted)): 37 h
plasma disposition ([1]; rat plasma): bi-exponential decay
duration of sustained reduction in the ratio of urine guanosine to urine guanine (PNPase; rat urine): > 6 h
duration of sustained reduction in urine levels of hypoxanthine (PNPase; rat urine): > 6 h
hypoxanthine levels in the urine (PNPase; rat urine): decrease
duration of sustained inhibition of PNPase following a bolus dose (PNPase; rat): > 6 h
SMILES: Nc1nc2[nH]c(N)nc2c(=O)[nH]1 [8-AG, 8-Aminoguanine]
effect on CYP-induced increase in sensitivity to mechanical stimuli (paw withdrawal threshold) (CYP—CIPN rats): restored to control values; also recorded: normalizes; also recorded: normalized to control conditions
effect on CYP-induced decrease in respiratory control ratio (RCR) [2]: reversed to values similar to Control; also recorded: prevented
